Tested on: tubulin
Assay: turbidimetric tubulin polymerisation assay with irradiation
Assay type: biochemical
Conditions: for tubulin polymerisation inhibition: 50 and 25 μM
Description: Turbidimetric tubulin polymerisation assays were performed as described in the literature^[29], following the increase in absorbance at 340 nm, but with the addition of irradiation supplied by the monochromator setup described in Part B. Two wavelengths were chosen for each compound, λE->Z (chosen to effect bulk trans->cis isomerisation, typically 390 nm), and λZ->E (chosen to effect bulk cis->trans isomerisation, typically 505 nm). The raw absorbance A(t) could be more clearly discussed by first correcting for any change in azoaryl absorbance over time by subtracting the absorbance of a control run performed without tubulin, yielding the corrected absorbance A*(t), and then taking its derivative R=dA*(t)/dt. Experiments were performed under six sets of conditions to illustrate the light control of tubulin polymerisation inhibition effected by the compounds of the invention: (a) in the dark (typical result: large R at the start decreasing rapidly over time), or (b) with constant irradiation at λE->Z (typical result: small R throughout the experiment), or (c) with constant irradiation at λZ->E (typical result: moderate R at the start decreasing slowly over time), or (d) with irradiation at λE->Z for an initial period then darkness (typical result: initial period with small R, then R increases after a while), or (e) with irradiation at λE->Z for a given period (typically 30 min) then irradiation at λZ->E (typical result: 30 minutes with small R, then R increases quickly to a moderate value which decreases slowly over time), or (f) with irradiation at λE->Z for a given period (usually 30 min) then a short irradiation at λZ->E (usually 30 seconds) then darkness (typical result: 30 minutes with small R, then R increases quickly to a moderate-to-large value which decreases slowly over time); the last three conditions required correction of A(t) to A*(t) to reveal the changes in absorption which were due only to tubulin polymerisation. It would be costly to determine light-dependent in vitro tubulin polymerisation IC50 values for each compound, eg. under protocols (a) and (b) (and/or (c)). This was not performed here since it was considered that such parameters have little predictive value in their intended complex biological settings, especially in light of the importance of biodistribution, tubulin-binding kinetics and lability (rather than thermodynamic binding strength) for tubulin disruption in biological settings.
Table 3 below illustrates typical results from experiments of type (a) (“DARK”) and (b) (“390 nm”) as described above, with compound (I.1) at concentrations well above the IC50 for the toxic regime, compared to a PBS-only control CTRL (no I.1 present).

`COc1ccc(N=Nc2cc(OC)c(OC)c(OC)c2)cc1O` [I.1, 2-methoxy-5-((3,4,5-trimethoxyphenyl)diazenyl)phenol] was tested, and the “A(λ = 340 nm)” value (25 μM, 390 nm, 0.0 min) was 0.0000, the “A(λ = 340 nm)” value (25 μM, 390 nm, 0.5 min) was −0.0026 and the “A(λ = 340 nm)” value (25 μM, 390 nm, 1.0 min) was −0.0022. For the same compound, the “A(λ = 340 nm)” value (25 μM, 390 nm, 1.5 min) was −0.0022, the “A(λ = 340 nm)” value (25 μM, 390 nm, 2.0 min) was −0.0010 and the “A(λ = 340 nm)” value (25 μM, 390 nm, 3.0 min) was 0.0004. For the same compound, the “A(λ = 340 nm)” value (25 μM, 390 nm, 3.5 min) was 0.0029, the “A(λ = 340 nm)” value (25 μM, 390 nm, 4.0 min) was 0.0027 and the “A(λ = 340 nm)” value (25 μM, 390 nm, 4.5 min) was 0.0034. For the same compound, the “A(λ = 340 nm)” value (25 μM, 390 nm, 5.0 min) was 0.0100, the “A(λ = 340 nm)” value (25 μM, 390 nm, 5.5 min) was 0.0094 and the “A(λ = 340 nm)” value (25 μM, 390 nm, 6.0 min) was 0.0132. The “A(λ = 340 nm)” value (25 μM, 390 nm, 6.5 min) was 0.0174, the “A(λ = 340 nm)” value (25 μM, 390 nm, 7.0 min) was 0.0171 and the “A(λ = 340 nm)” value (25 μM, 390 nm, 7.5 min) was 0.0222. The “A(λ = 340 nm)” value (25 μM, 390 nm, 8.0 min) was 0.0241, the “A(λ = 340 nm)” value (25 μM, 390 nm, 8.5 min) was 0.0259 and the “A(λ = 340 nm)” value (25 μM, 390 nm, 9.0 min) was 0.0288. The “A(λ = 340 nm)” value (25 μM, 390 nm, 9.5 min) was 0.0313, the “A(λ = 340 nm)” value (25 μM, 390 nm, 10.0 min) was 0.0341 and the “A(λ = 340 nm)” value (25 μM, 390 nm, 10.5 min) was 0.0358. For the same compound, the “A(λ = 340 nm)” value (25 μM, 390 nm, 11.0 min) was 0.0402, the “A(λ = 340 nm)” value (25 μM, 390 nm, 11.5 min) was 0.0413 and the “A(λ = 340 nm)” value (25 μM, 390 nm, 12.0 min) was 0.0443. For the same compound, the “A(λ = 340 nm)” value (25 μM, 390 nm, […]) was −0.0001, the “A(λ = 340 nm)” value (25 μM, DARK, 0.0 min) was 0.0000 and the “A(λ = 340 nm)” value (25 μM, DARK, 0.5 min) was 0.0001. For the same compound, the “A(λ = 340 nm)” value (25 μM, DARK, 1.0 min) was −0.0016, the “A(λ = 340 nm)” value (25 μM, DARK, 1.5 min) was 0.0018 and the “A(λ = 340 nm)” value (25 μM, DARK, 2.0 min) was 0.0119. The “A(λ = 340 nm)” value (25 μM, DARK, 3.0 min) was 0.0492, the “A(λ = 340 nm)” value (25 μM, DARK, 3.5 min) was 0.0689 and the “A(λ = 340 nm)” value (25 μM, DARK, 4.0 min) was 0.0851. The “A(λ = 340 nm)” value (25 μM, DARK, 4.5 min) was 0.0984, the “A(λ = 340 nm)” value (25 μM, DARK, 5.0 min) was 0.1073 and the “A(λ = 340 nm)” value (25 μM, DARK, 5.5 min) was 0.1133. For the same compound, the “A(λ = 340 nm)” value (25 μM, DARK, 6.0 min) was 0.1150, the “A(λ = 340 nm)” value (25 μM, DARK, 6.5 min) was 0.1212 and the “A(λ = 340 nm)” value (25 μM, DARK, 7.0 min) was 0.1249. For the same compound, the “A(λ = 340 nm)” value (25 μM, DARK, 7.5 min) was 0.1228, the “A(λ = 340 nm)” value (25 μM, DARK, 8.0 min) was 0.1250 and the “A(λ = 340 nm)” value (25 μM, DARK, 8.5 min) was 0.1259. The “A(λ = 340 nm)” value (25 μM, DARK, 9.0 min) was 0.1240, the “A(λ = 340 nm)” value (25 μM, DARK, 9.5 min) was 0.1276 and the “A(λ = 340 nm)” value (25 μM, DARK, 10.0 min) was 0.1276. For the same compound, the “A(λ = 340 nm)” value (25 μM, DARK, 10.5 min) was 0.1255, the “A(λ = 340 nm)” value (25 μM, DARK, 11.0 min) was 0.1290 and the “A(λ = 340 nm)” value (25 μM, DARK, 11.5 min) was 0.1299. For the same compound, the “A(λ = 340 nm)” value (25 μM, DARK, 12.0 min) was 0.1333, the “A(λ = 340 nm)” value (25 μM, DARK, […]) was 0.0274 and the “A(λ = 340 nm)” value (50 μM, 390 nm, 0.0 min) was 0.0000. For the same compound, the “A(λ = 340 nm)” value (50 μM, 390 nm, 0.5 min) was 0.0014, the “A(λ = 340 nm)” value (50 μM, 390 nm, 1.0 min) was 0.0020 and the “A(λ = 340 nm)” value (50 μM, 390 nm, 1.5 min) was 0.0033. For the same compound, the “A(λ = 340 nm)” value (50 μM, 390 nm, 2.0 min) was 0.0027, the “A(λ = 340 nm)” value (50 μM, 390 nm, 3.0 min) was 0.0066 and the “A(λ = 340 nm)” value (50 μM, 390 nm, 3.5 min) was 0.0074. The “A(λ = 340 nm)” value (50 μM, 390 nm, 4.0 min) was 0.0100, the “A(λ = 340 nm)” value (50 μM, 390 nm, 4.5 min) was 0.0084 and the “A(λ = 340 nm)” value (50 μM, 390 nm, 5.0 min) was 0.0122. For the same compound, the “A(λ = 340 nm)” value (50 μM, 390 nm, 5.5 min) was 0.0166, the “A(λ = 340 nm)” value (50 μM, 390 nm, 6.0 min) was 0.0163 and the “A(λ = 340 nm)” value (50 μM, 390 nm, 6.5 min) was 0.0172. The “A(λ = 340 nm)” value (50 μM, 390 nm, 7.0 min) was 0.0213, the “A(λ = 340 nm)” value (50 μM, 390 nm, 7.5 min) was 0.0209 and the “A(λ = 340 nm)” value (50 μM, 390 nm, 8.0 min) was 0.0221. The “A(λ = 340 nm)” value (50 μM, 390 nm, 8.5 min) was 0.0268, the “A(λ = 340 nm)” value (50 μM, 390 nm, 9.0 min) was 0.0268 and the “A(λ = 340 nm)” value (50 μM, 390 nm, 9.5 min) was 0.0293. The “A(λ = 340 nm)” value (50 μM, 390 nm, 10.0 min) was 0.0320, the “A(λ = 340 nm)” value (50 μM, 390 nm, 10.5 min) was 0.0318 and the “A(λ = 340 nm)” value (50 μM, 390 nm, 11.0 min) was 0.0327. The “A(λ = 340 nm)” value (50 μM, 390 nm, 11.5 min) was 0.0333, the “A(λ = 340 nm)” value (50 μM, 390 nm, 12.0 min) was 0.0359 and the “A(λ = 340 nm)” value (50 μM, 390 nm, […]) was 0.0052. For the same compound, the “A(λ = 340 nm)” value (50 μM, DARK, 0.0 min) was 0.0000, the “A(λ = 340 nm)” value (50 μM, DARK, 0.5 min) was 0.0010 and the “A(λ = 340 nm)” value (50 μM, DARK, 1.0 min) was 0.0014. For the same compound, the “A(λ = 340 nm)” value (50 μM, DARK, 1.5 min) was 0.0034, the “A(λ = 340 nm)” value (50 μM, DARK, 2.0 min) was 0.0128 and the “A(λ = 340 nm)” value (50 μM, DARK, 3.0 min) was 0.0552. The “A(λ = 340 nm)” value (50 μM, DARK, 3.5 min) was 0.0734, the “A(λ = 340 nm)” value (50 μM, DARK, 4.0 min) was 0.0926 and the “A(λ = 340 nm)” value (50 μM, DARK, 4.5 min) was 0.1046. For the same compound, the “A(λ = 340 nm)” value (50 μM, DARK, 5.0 min) was 0.1139, the “A(λ = 340 nm)” value (50 μM, DARK, 5.5 min) was 0.1209 and the “A(λ = 340 nm)” value (50 μM, DARK, 6.0 min) was 0.1269. The “A(λ = 340 nm)” value (50 μM, DARK, 6.5 min) was 0.1284, the “A(λ = 340 nm)” value (50 μM, DARK, 7.0 min) was 0.1262 and the “A(λ = 340 nm)” value (50 μM, DARK, 7.5 min) was 0.1379. For the same compound, the “A(λ = 340 nm)” value (50 μM, DARK, 8.0 min) was 0.1338, the “A(λ = 340 nm)” value (50 μM, DARK, 8.5 min) was 0.1359 and the “A(λ = 340 nm)” value (50 μM, DARK, 9.0 min) was 0.1367. For the same compound, the “A(λ = 340 nm)” value (50 μM, DARK, 9.5 min) was 0.1374, the “A(λ = 340 nm)” value (50 μM, DARK, 10.0 min) was 0.1397 and the “A(λ = 340 nm)” value (50 μM, DARK, 10.5 min) was 0.1370. For the same compound, the “A(λ = 340 nm)” value (50 μM, DARK, 11.0 min) was 0.1405, the “A(λ = 340 nm)” value (50 μM, DARK, 11.5 min) was 0.1417 and the “A(λ = 340 nm)” value (50 μM, DARK, 12.0 min) was 0.1402. For the same compound, the “A(λ = 340 nm)” value (50 μM, DARK, […]) was 0.0305, the tubulin polymerisation inhibition (390 nm irradiation) was “very strongly inhibited” and the tubulin polymerisation inhibition (in the dark) was “not inhibited”.

From patent publication US20170051149A1, “AZOARYLS AS REVERSIBLY MODULATABLE TUBULIN INHIBITORS” (ECOLE NORMALE SUPERIEURE DE LYON, priority 2014, published 2017)
